The values below come from ChEMBL document CHEMBL1201862, “PubChem BioAssay data set” (2004).

In one series the target is Cytochrome P450 2D6 (Homo sapiens, UniProt P10635).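 Further: CYP2D6 member of a cytochrome P450 panel assay.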
For the next series, the system named is Escherichia coli. In words: microbe, parasite or virus in culture.
The next series addresses T1, Protein RecA (Mycobacterium tuberculosis, UniProt P9WHJ3).
T1 sequence (P9WHJ3 whole entry): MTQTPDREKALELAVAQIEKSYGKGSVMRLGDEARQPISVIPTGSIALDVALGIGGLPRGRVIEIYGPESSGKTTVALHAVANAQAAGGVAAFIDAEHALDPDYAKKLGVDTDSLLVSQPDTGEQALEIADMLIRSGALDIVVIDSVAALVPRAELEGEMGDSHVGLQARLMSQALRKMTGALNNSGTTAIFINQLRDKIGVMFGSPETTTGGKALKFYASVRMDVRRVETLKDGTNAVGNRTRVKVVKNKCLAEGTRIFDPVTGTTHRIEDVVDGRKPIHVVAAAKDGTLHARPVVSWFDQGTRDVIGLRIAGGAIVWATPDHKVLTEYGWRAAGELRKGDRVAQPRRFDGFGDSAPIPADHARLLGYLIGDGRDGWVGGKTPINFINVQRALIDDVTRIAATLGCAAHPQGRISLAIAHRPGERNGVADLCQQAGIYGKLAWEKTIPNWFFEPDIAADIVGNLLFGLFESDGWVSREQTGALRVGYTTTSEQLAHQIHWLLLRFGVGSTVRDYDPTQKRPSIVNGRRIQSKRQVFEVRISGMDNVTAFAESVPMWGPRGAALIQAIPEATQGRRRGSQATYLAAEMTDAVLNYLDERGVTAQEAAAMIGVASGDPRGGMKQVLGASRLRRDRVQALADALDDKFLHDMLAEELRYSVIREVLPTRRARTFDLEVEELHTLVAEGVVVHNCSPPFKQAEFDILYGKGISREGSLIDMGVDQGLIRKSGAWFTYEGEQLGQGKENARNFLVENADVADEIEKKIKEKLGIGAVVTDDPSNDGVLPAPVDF
In words: Fluorescence Cell-Free Homogeneous Dose Retest to Identify Inhibitors of RecA-Intein Splicing Activity. [Related pubchem assays (depositor defined):AID2097, AID2223, AID489010, AID492950]. It counts as functional.

In series [1] the target is T2, Replicative DNA helicase DnaB (Mycobacterium tuberculosis, UniProt P9WMR3).
T2 sequence (P9WMR3 whole entry): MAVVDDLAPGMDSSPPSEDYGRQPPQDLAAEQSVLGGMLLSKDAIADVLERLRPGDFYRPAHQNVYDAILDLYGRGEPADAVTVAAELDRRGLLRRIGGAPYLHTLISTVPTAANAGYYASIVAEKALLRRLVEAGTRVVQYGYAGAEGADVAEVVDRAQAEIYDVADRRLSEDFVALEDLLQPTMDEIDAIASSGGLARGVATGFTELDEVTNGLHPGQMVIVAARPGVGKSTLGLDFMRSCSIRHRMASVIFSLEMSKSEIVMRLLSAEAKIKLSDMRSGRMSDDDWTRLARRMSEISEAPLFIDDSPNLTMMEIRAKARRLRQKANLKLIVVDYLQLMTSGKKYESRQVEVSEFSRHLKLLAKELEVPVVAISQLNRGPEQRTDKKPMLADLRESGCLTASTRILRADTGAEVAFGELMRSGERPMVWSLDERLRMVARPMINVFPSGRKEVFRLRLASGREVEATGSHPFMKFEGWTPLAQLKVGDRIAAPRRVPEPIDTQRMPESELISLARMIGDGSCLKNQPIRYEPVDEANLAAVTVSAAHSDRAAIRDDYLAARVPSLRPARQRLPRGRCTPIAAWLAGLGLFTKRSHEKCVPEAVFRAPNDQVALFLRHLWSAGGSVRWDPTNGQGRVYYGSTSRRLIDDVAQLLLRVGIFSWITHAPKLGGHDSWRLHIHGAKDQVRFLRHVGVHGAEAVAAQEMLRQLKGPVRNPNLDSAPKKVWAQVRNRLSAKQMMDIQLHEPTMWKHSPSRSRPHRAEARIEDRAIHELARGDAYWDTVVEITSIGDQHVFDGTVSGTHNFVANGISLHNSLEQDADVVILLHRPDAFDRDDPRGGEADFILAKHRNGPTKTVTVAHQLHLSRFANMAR
Kind of series: DnaB intein splicing inhibitors, dose response, biochemical, cell-free fluorescence (AID 449749). In kind it is functional.

Series [2] is described as follows: insulin promoter down-regulators in MIN6 cells, imaging, high-content screening, mouse beta cells (AID 1628). In kind it is functional.
A short description of series [3]: cytotoxicity in MIN6 insulinoma cells, dose response, cytotoxicity control, cell-based, mouse insulinoma (AID 2122).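 Further: confirmatory high-throughput counterscreen run to flag cytotoxic compounds; mouse MIN-6 beta cells carrying an insulin promoter eGFP reporter.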 In kind it is functional.
The subject of series [4] is HEK293. In words: cells. As to conditions: Homo sapiens.
Series [5] relates to HEK293. In words: cells. The settings on record: Homo sapiens. The source holds these as a separate data set.
The target in series [6] is T3, Voltage-gated N-type calcium channel alpha-1B subunit/Amyloid beta A4 precursor protein-binding family A member 1 (Homo sapiens, UniProt Q00975+Q02410). Kind of series: disruptors of Mint-PDZ/N-type channel peptide interaction – biochemical, HTRF, SAR follow-up (AID 2489). It counts as functional. Background: Time-resolved FRET reads energy transfer from a long-lived donor to a nearby acceptor.

The target in series [7] is T3, Voltage-gated N-type calcium channel alpha-1B subunit/Amyloid beta A4 precursor protein-binding family A member 1. In words: disruptors of Mint-PDZ/N-type channel peptide interaction – biochemical, HTRF, set 2, SAR follow-up (AID 434980). In kind it is functional.
A further series deals with SUMO E1/E2 (Homo sapiens, UniProt P63279+Q9UBE0+Q9UBT2). Kind of series: SAR analysis of SUMOylation using HTRF in an in-Vitro dose response assay. [Related pubchem assays (depositor defined):AID2006, AID2011, AID2018, AID2069, AID2658]. In kind it is functional.
The target in series [8] is T4, SUMO-activating enzyme (Homo sapiens, UniProt Q9UBT2). In words: SUMOylation inhibitor hit validation, confirmation, SUMOylation inhibitor project, biochemical, AlphaScreen (AID 2018). In kind it is functional. On the technique in general: In Alpha technology, singlet oxygen from a donor bead excites a nearby acceptor bead.
In series [9] the target is T5, Carboxy-terminal domain RNA polymerase II polypeptide A small phosphatase 1 (Homo sapiens, UniProt Q9GZU7).
T5 sequence (Q9GZU7 whole entry): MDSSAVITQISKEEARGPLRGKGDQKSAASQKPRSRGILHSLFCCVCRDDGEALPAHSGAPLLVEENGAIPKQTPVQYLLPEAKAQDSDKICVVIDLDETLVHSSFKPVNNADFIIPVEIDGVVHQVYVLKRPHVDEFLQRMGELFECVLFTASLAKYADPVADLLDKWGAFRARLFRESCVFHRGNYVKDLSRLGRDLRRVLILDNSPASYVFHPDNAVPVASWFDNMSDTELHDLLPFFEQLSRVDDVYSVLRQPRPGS
In words: inhibitors of CTDSP1, concentration-response testing, biochemical assay, absorbance-based, actives from ultra-high-throughput screening (AID 540297). In kind it is functional.

Series [10] has as its target T4, SUMO-activating enzyme. Kind of series: inhibitors of in vitro SUMOylation cascade, primary screen, biochemical, HTRF, uHTS (AID 2006). It counts as protein-complex assay.
Series [11] has as its target Glucose-6-phosphate 1-dehydrogenase (Homo sapiens, UniProt P11413). Kind of series: human G6PD enzyme inhibitors, dose response, selectivity assay for P. falciparum G6PD inhibitor project, biochemical, fluorescence (AID 504792). In kind it is functional.
A further series has as its target Cytochrome P450 3A4 (Homo sapiens, UniProt P08684).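 Further: CYP3A4 tested as one member of a cytochrome P450 panel screen.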
Series [12] deals with T6, Calpain-2 catalytic subunit (Sus scrofa, UniProt P43367).
T6 sequence (P43367 whole entry): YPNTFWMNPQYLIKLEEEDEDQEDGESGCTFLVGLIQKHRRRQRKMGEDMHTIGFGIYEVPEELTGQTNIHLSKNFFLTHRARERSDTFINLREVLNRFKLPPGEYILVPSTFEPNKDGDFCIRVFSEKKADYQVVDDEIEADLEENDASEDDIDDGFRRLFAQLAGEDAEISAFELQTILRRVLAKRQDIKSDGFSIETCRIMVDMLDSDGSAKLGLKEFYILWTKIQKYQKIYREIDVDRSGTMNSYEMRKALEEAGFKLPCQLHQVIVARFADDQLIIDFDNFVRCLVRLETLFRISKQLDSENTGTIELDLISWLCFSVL
Kind of series: pig calpain II inhibitor potency, dose response, biochemical, fluorogenic peptide substrate (AID 1420). It counts as functional.

Series [13] relates to Streptococcus sp. 'group A'. Kind of series: growth inhibition of control SK(-) GAS strain, dose response, counter-screen for streptokinase expression inhibitor project, luminescence, kanamycin, BacTiterGlo, confirmation (AID 1900). It counts as functional, organism-based. Background: Counterscreens check selectivity or assay interference.
For a further series, the target named is T7, Streptokinase A (Streptococcus pyogenes serotype M1, UniProt P10520).
T7 sequence (P10520 whole entry): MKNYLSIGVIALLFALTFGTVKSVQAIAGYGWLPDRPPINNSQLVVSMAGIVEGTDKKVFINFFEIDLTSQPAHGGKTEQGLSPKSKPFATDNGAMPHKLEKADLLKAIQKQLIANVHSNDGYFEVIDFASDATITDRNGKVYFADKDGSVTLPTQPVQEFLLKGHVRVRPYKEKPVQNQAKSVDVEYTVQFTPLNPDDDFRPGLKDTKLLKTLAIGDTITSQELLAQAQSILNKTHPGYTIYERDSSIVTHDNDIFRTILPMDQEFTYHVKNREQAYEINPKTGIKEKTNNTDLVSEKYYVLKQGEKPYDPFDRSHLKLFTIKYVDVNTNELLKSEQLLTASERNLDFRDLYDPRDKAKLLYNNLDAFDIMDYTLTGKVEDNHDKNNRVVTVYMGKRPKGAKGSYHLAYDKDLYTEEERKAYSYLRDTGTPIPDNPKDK
In words: S. pyogenes streptokinase expression inhibitors, potency, dose response, plasminogen activation absorbance, OD405 (AID 1914).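 Further: secreted streptokinase activity via plasminogen activation per viability signal from cell pellet.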 It counts as functional, Streptococcus pyogenes M1 GAS.

The next series concerns Streptococcus. In words: Group A Streptococcus viability loss, dose response, counter-screen for streptokinase expression inhibitor project, luminescence, BacTiterGlo (AID 1915).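 Further: potency for reduction of bacterial viability or growth.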 It counts as functional, organism-based.

Calls of active or inactive are those of the source. Where only a bound is given, the exact number is not on record here.

T3 sequence (Q00975 whole entry): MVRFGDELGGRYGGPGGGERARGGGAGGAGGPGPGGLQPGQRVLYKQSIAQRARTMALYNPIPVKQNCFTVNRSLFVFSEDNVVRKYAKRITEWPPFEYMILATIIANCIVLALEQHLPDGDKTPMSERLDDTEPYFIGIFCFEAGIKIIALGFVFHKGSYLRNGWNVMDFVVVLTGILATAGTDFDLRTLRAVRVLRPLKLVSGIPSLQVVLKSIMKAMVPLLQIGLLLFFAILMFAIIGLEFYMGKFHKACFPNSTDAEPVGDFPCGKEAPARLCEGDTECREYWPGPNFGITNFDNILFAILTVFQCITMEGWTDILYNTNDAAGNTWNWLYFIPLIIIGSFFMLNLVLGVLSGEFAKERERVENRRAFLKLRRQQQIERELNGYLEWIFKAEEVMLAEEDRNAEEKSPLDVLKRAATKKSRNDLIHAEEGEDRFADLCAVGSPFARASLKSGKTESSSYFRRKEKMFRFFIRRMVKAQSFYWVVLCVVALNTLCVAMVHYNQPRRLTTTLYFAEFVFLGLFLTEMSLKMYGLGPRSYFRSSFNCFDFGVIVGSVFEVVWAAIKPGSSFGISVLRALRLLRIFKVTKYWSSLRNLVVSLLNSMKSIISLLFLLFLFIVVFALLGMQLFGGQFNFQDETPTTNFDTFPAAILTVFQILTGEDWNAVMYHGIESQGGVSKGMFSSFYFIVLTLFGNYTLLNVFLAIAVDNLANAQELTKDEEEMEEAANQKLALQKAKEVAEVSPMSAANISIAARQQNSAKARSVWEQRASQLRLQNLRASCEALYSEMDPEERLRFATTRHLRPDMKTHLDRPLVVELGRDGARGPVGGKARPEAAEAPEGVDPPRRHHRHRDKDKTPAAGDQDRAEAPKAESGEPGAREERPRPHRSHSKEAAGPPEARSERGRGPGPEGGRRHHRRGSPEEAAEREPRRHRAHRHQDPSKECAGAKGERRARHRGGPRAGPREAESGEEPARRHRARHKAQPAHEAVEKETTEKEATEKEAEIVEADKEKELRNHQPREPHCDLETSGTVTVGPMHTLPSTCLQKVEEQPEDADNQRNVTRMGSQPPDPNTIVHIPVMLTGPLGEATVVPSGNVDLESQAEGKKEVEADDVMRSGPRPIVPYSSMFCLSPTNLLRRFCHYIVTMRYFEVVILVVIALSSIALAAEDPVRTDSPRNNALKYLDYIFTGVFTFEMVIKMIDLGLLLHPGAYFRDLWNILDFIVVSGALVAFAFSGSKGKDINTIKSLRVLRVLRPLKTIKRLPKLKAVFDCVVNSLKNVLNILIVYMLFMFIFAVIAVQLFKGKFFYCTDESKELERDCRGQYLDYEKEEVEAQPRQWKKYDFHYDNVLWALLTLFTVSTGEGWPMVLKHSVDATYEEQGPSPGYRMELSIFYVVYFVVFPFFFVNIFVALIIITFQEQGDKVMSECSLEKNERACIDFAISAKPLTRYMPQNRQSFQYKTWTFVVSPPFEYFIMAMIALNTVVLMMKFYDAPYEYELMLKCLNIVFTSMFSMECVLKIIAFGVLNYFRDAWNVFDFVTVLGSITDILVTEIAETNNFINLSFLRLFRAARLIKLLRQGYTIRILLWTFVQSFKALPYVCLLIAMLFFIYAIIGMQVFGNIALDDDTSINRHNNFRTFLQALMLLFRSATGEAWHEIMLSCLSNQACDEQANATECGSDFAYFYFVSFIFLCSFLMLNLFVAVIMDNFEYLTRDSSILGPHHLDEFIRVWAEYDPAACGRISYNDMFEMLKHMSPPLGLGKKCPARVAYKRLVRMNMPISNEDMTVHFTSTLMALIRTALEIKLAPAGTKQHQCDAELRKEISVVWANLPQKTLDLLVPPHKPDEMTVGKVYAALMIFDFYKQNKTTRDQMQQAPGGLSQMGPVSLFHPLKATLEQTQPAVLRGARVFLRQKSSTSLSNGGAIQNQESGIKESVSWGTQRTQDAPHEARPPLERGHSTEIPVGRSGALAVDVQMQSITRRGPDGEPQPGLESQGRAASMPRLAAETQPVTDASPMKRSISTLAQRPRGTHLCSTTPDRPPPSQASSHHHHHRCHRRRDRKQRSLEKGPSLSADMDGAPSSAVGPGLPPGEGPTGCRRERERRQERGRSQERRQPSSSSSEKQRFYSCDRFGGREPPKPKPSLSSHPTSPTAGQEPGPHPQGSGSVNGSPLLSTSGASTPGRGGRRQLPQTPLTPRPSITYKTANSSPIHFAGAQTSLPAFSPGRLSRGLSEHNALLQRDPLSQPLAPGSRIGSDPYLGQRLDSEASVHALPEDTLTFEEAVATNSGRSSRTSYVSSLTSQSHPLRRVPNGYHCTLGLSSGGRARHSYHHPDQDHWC
T3 sequence (Q02410 whole entry): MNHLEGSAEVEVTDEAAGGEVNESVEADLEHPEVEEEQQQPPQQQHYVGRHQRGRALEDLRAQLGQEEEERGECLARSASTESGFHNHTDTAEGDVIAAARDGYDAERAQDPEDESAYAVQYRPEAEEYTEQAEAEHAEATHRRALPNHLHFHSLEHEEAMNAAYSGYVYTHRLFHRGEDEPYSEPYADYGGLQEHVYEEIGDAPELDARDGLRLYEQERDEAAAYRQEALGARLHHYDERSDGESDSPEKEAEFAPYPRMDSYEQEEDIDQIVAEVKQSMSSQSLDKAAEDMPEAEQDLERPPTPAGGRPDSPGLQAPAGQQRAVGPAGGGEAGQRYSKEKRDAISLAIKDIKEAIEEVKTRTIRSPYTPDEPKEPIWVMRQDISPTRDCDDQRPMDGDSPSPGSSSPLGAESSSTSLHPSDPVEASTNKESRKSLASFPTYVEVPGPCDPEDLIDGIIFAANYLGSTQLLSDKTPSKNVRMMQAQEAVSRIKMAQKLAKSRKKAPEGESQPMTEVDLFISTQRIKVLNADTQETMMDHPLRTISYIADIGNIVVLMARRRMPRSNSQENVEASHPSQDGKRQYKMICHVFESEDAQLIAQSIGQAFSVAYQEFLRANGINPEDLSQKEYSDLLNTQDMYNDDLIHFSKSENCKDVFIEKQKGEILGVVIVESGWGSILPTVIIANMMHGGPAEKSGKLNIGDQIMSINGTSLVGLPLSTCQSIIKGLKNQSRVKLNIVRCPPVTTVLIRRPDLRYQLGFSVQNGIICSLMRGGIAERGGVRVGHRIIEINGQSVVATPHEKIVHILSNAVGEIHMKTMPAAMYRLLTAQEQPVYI
T4 sequence (Q9UBE0 whole entry, the tested form may be a part): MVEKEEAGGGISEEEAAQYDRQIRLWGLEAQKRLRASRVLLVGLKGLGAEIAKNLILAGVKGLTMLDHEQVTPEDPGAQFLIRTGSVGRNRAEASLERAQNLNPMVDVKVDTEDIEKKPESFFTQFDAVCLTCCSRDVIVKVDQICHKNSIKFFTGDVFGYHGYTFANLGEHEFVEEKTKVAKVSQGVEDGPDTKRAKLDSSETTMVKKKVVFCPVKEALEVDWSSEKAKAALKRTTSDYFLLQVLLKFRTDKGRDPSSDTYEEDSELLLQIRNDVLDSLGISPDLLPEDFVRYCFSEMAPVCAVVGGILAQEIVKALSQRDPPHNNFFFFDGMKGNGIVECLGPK
T4 sequence (Q9UBT2 whole entry, the tested form may be a part): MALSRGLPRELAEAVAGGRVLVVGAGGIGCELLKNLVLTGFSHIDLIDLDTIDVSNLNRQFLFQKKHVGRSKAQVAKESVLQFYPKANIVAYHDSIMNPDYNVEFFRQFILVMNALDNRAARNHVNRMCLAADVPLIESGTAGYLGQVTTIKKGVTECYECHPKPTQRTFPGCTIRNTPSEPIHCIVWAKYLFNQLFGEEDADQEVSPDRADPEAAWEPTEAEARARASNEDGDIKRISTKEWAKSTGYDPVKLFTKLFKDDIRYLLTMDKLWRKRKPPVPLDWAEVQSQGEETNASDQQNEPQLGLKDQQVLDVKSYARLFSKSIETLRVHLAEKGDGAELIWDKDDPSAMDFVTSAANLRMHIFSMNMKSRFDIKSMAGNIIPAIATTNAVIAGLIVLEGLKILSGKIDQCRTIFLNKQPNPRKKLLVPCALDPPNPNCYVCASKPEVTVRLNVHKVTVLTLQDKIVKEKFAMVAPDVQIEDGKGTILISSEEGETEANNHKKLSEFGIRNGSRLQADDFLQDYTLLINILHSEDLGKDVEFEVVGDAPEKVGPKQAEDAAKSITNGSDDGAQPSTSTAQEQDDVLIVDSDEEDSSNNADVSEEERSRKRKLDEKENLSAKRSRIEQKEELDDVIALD
Chain of SUMO E1/E2 (Q9UBE0 whole entry): as the sequence (Q9UBE0 whole entry, the tested form may be a part) above
Chain of SUMO E1/E2 (Q9UBT2 whole entry): as the sequence (Q9UBT2 whole entry, the tested form may be a part) above
Chain of SUMO E1/E2 (P63279 whole entry): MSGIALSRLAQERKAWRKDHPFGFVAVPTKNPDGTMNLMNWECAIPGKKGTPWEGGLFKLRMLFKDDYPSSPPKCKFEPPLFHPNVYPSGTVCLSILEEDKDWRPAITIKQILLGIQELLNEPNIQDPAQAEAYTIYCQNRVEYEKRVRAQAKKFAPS
Chain of Cytochrome P450 2D6 (P10635 whole entry): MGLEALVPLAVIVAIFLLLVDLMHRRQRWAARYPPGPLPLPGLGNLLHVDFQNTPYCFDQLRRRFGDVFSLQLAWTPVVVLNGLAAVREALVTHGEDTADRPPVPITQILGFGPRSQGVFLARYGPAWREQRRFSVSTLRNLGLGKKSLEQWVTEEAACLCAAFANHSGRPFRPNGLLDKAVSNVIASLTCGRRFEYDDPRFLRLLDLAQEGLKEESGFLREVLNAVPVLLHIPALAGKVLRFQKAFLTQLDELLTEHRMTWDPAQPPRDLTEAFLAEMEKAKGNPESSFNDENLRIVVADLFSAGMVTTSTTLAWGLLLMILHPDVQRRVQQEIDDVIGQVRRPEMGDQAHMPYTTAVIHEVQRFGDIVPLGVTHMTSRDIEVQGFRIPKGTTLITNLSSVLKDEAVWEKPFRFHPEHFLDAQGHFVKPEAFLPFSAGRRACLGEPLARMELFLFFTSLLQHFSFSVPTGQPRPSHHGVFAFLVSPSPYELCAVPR

Broadly, the AC50 is the concentration at which the activity in the assay is half-maximal. As to `Cc1sc2ccccc2[n+]1CCC(=O)O`, the AC50 result at Cytochrome P450 2D6 was “inconclusive”.
A word on the EC50: it is the concentration giving half of the maximal effect. For `O=C(CSc1ncnc2c1nnn2Cc1ccccc1F)NCC1CCCO1` (configuration not stated), the AC50 in the series with Escherichia coli was 58.3 µM (active); in [1], 15 µM (active). Besides, on Protein RecA, the EC50 was 16.5 µM (active).
The term IC50 denotes the midpoint of a concentration-inhibition curve. For `O=C(CN1CCN(C(c2ccccc2)c2ccccc2)CC1)NC(=O)NCc1ccco1`, the values for the IC50 in series [2] and in [3] were 0.468 µM (active) and 0.439 µM (active), respectively.
On to `COC(=O)c1ccc(CSc2ncnc3c2sc2nc(N4CCOCC4)c4c(c23)CCCC4)o1`, for which the EC50 in the series on HEK293 [4] and in the series on HEK293 [5] was > 59.7 µM (inactive) in each case.
As for `O=C(COC(=O)c1cc(-c2ccco2)nc2ccccc12)NCc1ccc(F)cc1`, the IC50 in [6] was 30.4 µM (active); in [7], 11.1 µM (active); on SUMO E1/E2 it was 4.64 µM (active).
In the case of `COc1ccccc1NC(=O)Cn1c(O)c(N=NC(=O)c2ccccc2O)c2ccccc21`, the IC50 at SUMO-activating enzyme [8] was 6.52 µM (active); in series [9], 2.74 µM (active); on SUMO-activating enzyme [10] it was 23.8 µM (active); on SUMO E1/E2, 71.1 µM (active).
Consider `Cc1ccc(OCCn2cnc3c(N)ncnc32)cc1`, for which the EC50 in the series on HEK293 [4] and in the series with HEK293 [5] was > 59.6 µM (inactive) each time.
Consider `Cc1cc(O)nc(N/N=C/c2c(C)nn(-c3ccccc3)c2Cl)n1`, for which the IC50 in series [11] is > 80 µM (inactive).
On to `C[C@@H]1/C=C\CC(=O)OC[C@H]2O[C@@H](C=C[C@@H]2O)[C@H](C)/C=C\CC(=O)OC1`, for which the AC50 on Cytochrome P450 3A4 is 5.01 µM (inconclusive); on Cytochrome P450 2D6, “inconclusive”.
As for `CCOC(=O)c1cnc(-n2nc(C)cc2C)nc1Nc1ccc(C)cc1`, the results for the 50% inhibitory concentration (IC50) in [2], in series [12] and in series [3] were 2.56 µM (active), 5.74 µM (not active) and 7.89 µM (active), respectively. The values for the EC50 (in [13]; at Streptokinase A; in the series with Streptococcus) were 3.44 µM (active), > 150 µM (not active) and > 150 µM (not active), respectively.
`O=C(NCc1ccccc1)c1ccc(Br)o1`: in the series on Escherichia coli, the AC50 was 42.9 µM (active).
